Counter-ions that a name gives are not always drawn.
Tests used:
[1] = hepatic disorder induced by D-galactosamine in SD rats (Example 2); format: in vivo, SD male rats; settings: oral
Protocol: Using 7 week-old SD male rats, the effectiveness of beraprost by oral administration against the hepatic disorder induced by D-galactosamine was tested. As the test compound, the sodium salt of beraprost was used. The test compound was administered in a dose of 0.3 mg/kg per each time at one hour before and 6 hours after the administration of D-galactosamine. D-galactosamine was subcutaneously administered in a dose of 1 g/kg. Forty eight hours after the administration of D-galactosamine, the GOT and glutamic acid-pyruvic acid transaminase (hereinafter referred to as "GPT") levels in serum, and the content of triglyceride in the livers were measured.
As a control group, one group was treated in the same manner as described above except that sodium salt of beraprost was not administered.

[2] = hepatic disorder induced by carbon tetrachloride in SD rats, serum GOT (Example 1); format: in vivo, Sprague-Dawley male rats; settings: 0.3 mg/kg; for GOT level in serum: 24 h after
Protocol: Using 7 week-old Sprague-Dawley (hereinafter referred to as "SD") male rats, the effectiveness of beraprost against hepatic disorder induced by carbon tetrachloride was tested employing two administration routes, that is, oral and intraperitoneal administrations. Each group consisted of 6 rats. The test compound was the sodium salt of beraprost. The test compound was administered to the rats. which had been fasted for 24 hours, One hour after beraprost administration, 12.5% carbon tetrachloride solution in olive oil was administered in a dose of 2 ml/kg. The carbon tetrachloride solution was intraperitoneally administered to the rats to which the test compound was orally administered. The carbon tetrachloride solution was orally administered to the rats to which the test compound was intraperitoneally administered. After the administration of the carbon tetrachloride solution, the rats were fasted for 24 hours, and the glutamic acid-[…] transaminase (hereinafter referred to as "GOT") level in serum was measured. As a control group, one group was treated in the same manner as described above except that the sodium salt of beraprost was not administered. The results are shown in […]

[3] = increase in lipid peroxide level in the blood induced by carbon tetrachloride in SD rats (Example 3); format: in vivo, SD male rats; settings: for Lipid Peroxides in serum / GPT level in serum / GOT level in serum: dose not given; for Lipid Peroxides in serum: control 7.10 ± 1.73, non-treated 3.40 ± 0.21; for GPT level in serum: control 3709 ± 406, non-treated 21 ± 2; for GOT level in serum: control 14689 ± 1577, non-treated 95 ± 5
Protocol: Using 7 week-old SD male rats, each group consisting of 6 rats, the effectiveness of beraprost by oral administration against the increase in the lipid peroxide level in the blood induced by carbon tetrachloride was tested. The sodium salt of beraprost was used as the test compound. 12.5% carbon tetrachloride solution in olive oil was intraperitoneally administered in a dose of 2 ml/kg to the rats which had been fasted for 24 hours. After the administration of the carbon tetrachloride solution, the rats were fasted for another 24 hours and then the levels of lipid peroxide, GOT and GPT in serum were measured. The test compound was administered one hour before (Test Group 1) or 6 hours after (Test Group 2) the administration of the carbon tetrachloride solution. As a control group, one group was treated in the same manner as described above except that the sodium salt of beraprost was not administered.

[4] = disorder caused by liver ischemia-recirculation in SD rats (Example 4); format: in vivo, SD male rats; settings: oral, 30 minutes before ischemia; for GPT level in serum: two hours after recirculation, control 624
Protocol: Using 8-10 week-old SD male rats, the effectiveness of beraprost by oral administration against the disorder caused by liver ischemia-recirculationwas tested. The sodium salt of beraprost was used as the test compound. The test compound was administered 30 minutes before the induction of liver ischemia. Liver ischemia was induced by ventrotomy under anesthesia and closing the hepatic artery in the outer left leaf and the portal vein with clips. One hour after the clipping, the clips were removed to reopen the vessels. Two hours after recirculation, the GPT level in serum was measured to evaluate the degree of disorder.
As a control group, one group was treated in the same manner as described above except that distilled water was administered in place of sodium salt of beraprost.

[5] = Acute Toxicity Test (Example 5); parameters: species or system rats; settings: rat, in vivo, 14 days, parentheses: 95% reliable limit, Litchfield-Wilcoxon Method
Protocol: (§1) Acute toxicity test was carried out using rats.
(§2) *Litchfield-Wilcoxon Method (see J. Pharmacol. Expl. Therap. Vol. 96, p.
(§3) The numbers in parentheses indicate 95% reliable limit.

rats = experiment: Acute Toxicity Test (Example 5); settings: rat, in vivo
Protocol: as §1, §2, §3

[6] = Test Group 1: oral, one hour before carbon tetrachloride, 24 h after
[7] = Test Group 2: oral, 6 hours after carbon tetrachloride, measured 24 h after carbon tetrachloride
[8] = 0.3 mg/kg twice, vs control group
[9] = oral, one hour before or 6 hours after carbon tetrachloride

## CC#CCC(C)[C@H](O)/C=C/[C@@H]1[C@H]2c3cccc(CCCC(=O)O)c3O[C@H]2C[C@H]1O (relative stereo) [sodium salt of beraprost]
[1]; 0.3 mg/kg one hour before and 6 hours after D-galactosamine, 48 h, control 42.4 ± 6.0, non-treated 14.1 ± 0.6
  Triglyceride content in the liver: 12.4 ± 0.7 mg/g tissue
[1]; 0.3 mg/kg one hour before and 6 hours after D-galactosamine, 48 h, control 2552 ± 375, non-treated 79 ± 5
  GPT level in serum: 1356 ± 187 unit/l
[1]; 0.3 mg/kg one hour before and 6 hours after D-galactosamine, 48 h, control 5641 ± 858, non-treated 154 ± 7
  GOT level in serum: 3506 ± 377 unit/l
[2]; intraperitoneal, one hour before carbon tetrachloride (oral), control 11943 ± 1216
  GOT level in serum: 1889 ± 506 unit/l
[2]; oral and intraperitoneal, vs control
  decrease in GOT (in words): significant decrease in GOT was observed
[2]; oral, one hour before carbon tetrachloride (intraperitoneal), control 15647 ± 1588
  GOT level in serum: 3820 ± 642 unit/l
[3]; [6]
  Lipid Peroxides in serum: 2.44 ± 0.34 µM
  GPT level in serum: 1285 ± 344 unit/l
  GOT level in serum: 4428 ± 1649 unit/l
[3]; [7]
  Lipid Peroxides in serum: 2.82 ± 0.52 µM
  GPT level in serum: 1713 ± 258 unit/l
  GOT level in serum: 7672 ± 1834 unit/l
[4]; 0.03 mg/kg
  GPT level in serum: 617 unit/l
[4]; 0.1 mg/kg
  GPT level in serum: 540 unit/l
[4]; 0.3 mg/kg
  GPT level in serum: 427 unit/l
[4]; 0.03-0.3 mg/kg
  decrease in GPT level in serum (in words): a decrease in GPT level in serum was observed

## CC#CCC(C)[C@H](O)/C=C/[C@@H]1[C@H]2c3cccc(CCCC(=O)O)c3O[C@H]2C[C@H]1O (relative stereo) [beraprost, (±)-(1R*,2R*, 3aS*,8bS*)-2,3,3a,8b-tetrahydro-2-hydroxy-1-[(E)-(3S*)-3-hydroxy-4methyl-1-ocetene-6-inyl]-1H-cyclopenta[b]benzofuran-5-butyric acid]
[1]; [8]
  decrease in amount of triglycerides in the liver (in words): significant decreases
  decrease in serum GOT (in words): significant decreases
  decrease in serum GPT (in words): significant decreases
[3]; [9]
  decrease in GOT (in words): significant decrease
  decrease in GPT (in words): significant decrease
  decrease in lipid peroxide level in the blood (in words): significant decrease
[5]; iv, female
  LD50 at 336 h: 13 mg/kg
[5]; iv, male
  LD50 at 336 h: 18 mg/kg
[5]; po, female
  LD50 at 336 h: 12 mg/kg
[5]; po, male
  LD50 at 336 h: 15 mg/kg
[5]; sc, subcutaneous, female
  LD50 at 336 h: 7 mg/kg
[5]; sc, subcutaneous, male
  LD50 at 336 h: 13 mg/kg
rats
  pathological symptoms: slight to medium congestion in lung, slight to medium bleeding in stomach glands and slight small intestine catarrh
  side effects: side effects are observed only at very high dose
